One data set has as its system M. avium. Put plainly: MIC of antibiotics by broth microdilution, M. avium strains of Examples 3 and 4. Conditions: 7H10 agar plates for tissue CFU counts. It counts as cell-based, Mycobacterium avium subsp. hominissuis. The method, then:
Susceptibility testing was conducted using broth microdilution single and twofold dilutions as described in the literature. Suspensions were prepared by swabs on a growth plate with a sterile cotton swab, or were prepared in broth culture. The growth was transferred to a 4.5 mL of phosphate buffer solution (PBS) until the turbidity matched the density of a 0.5 McFarland standard. Suspensions were then vigorously mixed on a vortex mixer for 15 to 20 seconds. The final inoculum was prepared to a bacterial density of 10^5. The tube was inverted 8-10 times to mix the suspension.
Following both the four-week and eight-week treatment period, mice were sacrificed, and lungs and spleens were harvested for CFU counts in each tissue and compared to CFUs recovered in the baseline and vehicle-treated groups. Tissue samples were plated with and without antibiotic on 7H10 agar. Antibiotic plates were made with minimum inhibitory concentrations (MICs) of 8 μg/ml for clarithromycin, and 0.25, μg/ml for both rifabutin (RFB) and clofazimine (CFZ). Plates were made for each of clarithromycin (CLR) alone, clarithromycin plus either rifabutin (CLR+RFB) or clofazimine (CLR+CFZ) and the three-drug combination (CLR+RFB+CFZ). All plates were incubated in a microbiological incubator at 37° C. for 14 days.

The subject of the next data set is NTM. The conditions noted are these: mouse models of systemic and lung infection; preclinical literature; cited from earlier work.
Data set [1] can be described thus: 7-day mouse tolerability and PK study. The conditions noted are these: for Cavg (rifabutin): AUCtlast/24 h; for Tmax / AUC(0-t) / Cmax: female, C57BL/6, mouse, in vivo, po; for AUC(0-t): AUCtlast (rifabutin); for AUC(0-t) / Cmax: mouse plasma; for Cmax: Cmax (rifabutin). Here is the method: Sixty (60) female mice were tested, 12 per treatment groups: […]
Data set [2] has as its system MAC. Put plainly: MIC of the MAC strains used in the HFS-MAC studies. The class given is cell-based, Mycobacterium avium complex. Conditions: Mycobacterium avium. Here is the method: The MAC strain used in the HFS-MAC studies was ATCC strain 700898. The study center also had 5 well-characterized clinical strains that have undergone whole-genome sequencing and habituation to the HFS-MAC. Stock cultures of MAC were stored at −80° C. in Middlebrook 7H9 broth with 10% OADC and 10% glycerol. THP-1 monocytes were stored in liquid nitrogen and have been habituated for the HFS-MAC growth conditions.

Data set [3] deals with MAC. In words: Lung histopathology of mice infected with MAC and treated for four and eight weeks. The class given is in vivo, Mycobacterium avium complex. Conditions: 32 sections per group. The source says:
Lung and Spleen Histopathology of Mice Infected with MAC and Treated with FDC Components Alone and in Combination for Four and Eight Weeks of Treatment
Each of the experimental group had eight cut examined from each lung (8×2 lungs=16×2 mice=32 sections). Lungs were normal and not showing any pathology at pre-infection.

The subject of a further data set is M. avium 104 biofilm. Put plainly: In vitro biofilm model of infection. Conditions: mean ± SD; CLR 1.9-4.3 μg/mL, RFB 0.04 μg/mL, CFZ 0.0005 μg/mL. It counts as cell-based, Mycobacterium avium subsp. hominissuis.
Data set [4] has as its system intracellular MAC in THP-1 monocytes. In words: Hollow fiber system model of MAC (HFS-MAC): microbial kill. The class given is cell-based, Mycobacterium avium complex. The conditions noted are these: HF experiments.
Protocol: The anti-mycobacterial effects of CLR, CFZ, and RFB was evaluated in the hollow fiber system model of MAC (HFS-MAC), which recapitulates the intrapulmonary concentrations of these antibiotics. The HFS-MAC allows for an assessment of the contribution of individual drug components in terms of anti-mycobacterial effects and enables exploration of potential synergy, additivity, or antagonism of different doses of drugs and combination regimens on the log-phase growth of intracellular MAC, for both microbial kill and resistance suppression.
A two-part investigation was conducted to assess the contribution of components of various FDC products comprising CLR, CFZ, and RFB in terms of depth and rate of MAC kill and suppression of the emergence of resistance. The anti-MAC activity of each antibiotic component was evaluated as one-drug alone; as two-drug combinations and the three-drug combination. For each combination (singlet, doublet or triplet), the drug concentrations were sampled from the HF fluid bathing MAC-infected cells. […] Anti-MAC activity was evaluated by kill slopes defined as the kill rate constant (and the half-life of kill [reciprocal of the kill rate constant]) as well as the maximum kill, defined as the maximum reduction in MAC CFUs and compared between the different antibiotic combinations.
MAC was grown into log-phase for 4 days, parallel with cultivation of THP-1 monocytes. The THP-1 cells were then infected with MAC overnight at a multiplicity of infection of 1:1. The THP-1 cells were washed to remove extracellular bacteria, and 20 mL of 1×10^6 (6.0 log10) cells/mL were inoculated into each HFS-MAC on Study Day 0. The peripheral compartment is the abluminal hollow fibers space that is also enclosed by the plastic, while the intraluminal space and flow path form the central compartment. […]
Another data set has as its system MAC bacteria. The class given is cell-based, Mycobacterium avium complex. The conditions noted are these: 2×MIC; starting inoculum 5.5 log10 CFU/ml. The method, then: In vitro, efficacy was studied in static time-kill kinetics assays (at 2×minimum inhibitory concentration [MIC]), intended to mirror a desired peak serum concentration for all three antibiotics using an established assay. All experiments were performed with a starting inoculum of 5.5 log10 CFU/ml MAC bacteria, higher than the bacterial load expected in the airway secretions of patients with mild nodular-bronchiectatic disease due to MAC.

The conditions of data set [5]: epithelial lining fluid to total plasma/serum; cited from earlier work.
The mark [6] stands for this setting: 20 mg/kg, Day 1, RFB 20 mg/kg alone, oral.
Where [7] appears, read: 20 mg/kg, Day 7, RFB 20 mg/kg alone, oral once daily.
Setting [8] is: 60 mg/kg, Day 1, RFB 60 mg/kg alone, oral.
[9] abbreviates: 60 mg/kg, Day 1, RFB 60 mg/kg with CLR 200 mg/kg and CFZ 30 mg/kg, oral.
Setting [10] is: 60 mg/kg, Day 7, RFB 60 mg/kg alone, oral once daily.
The mark [11] stands for this setting: 60 mg/kg, Day 7, RFB 60 mg/kg with CLR 200 mg/kg and CFZ 30 mg/kg, oral once daily.

Entries after “also recorded” stand apart in the source; their conditions may differ.

By Tmax is commonly meant the time from dosing to the highest level. The AUC(0-t) is exposure summed from dosing to a finite time, without extrapolation to infinity. A higher AUC(0-t) goes with more exposure. As usually defined, the Cmax is the peak of the concentration-time curve. In general, MIC refers to the smallest concentration in the dilution series that meets the test's criterion for growth inhibition.

Regarding `CO[C@H]1/C=C/O[C@@]2(C)Oc3c(C)c(O)c4c(c3C2=O)C2=NC3(CCN(CC(C)C)CC3)NC2=C(NC(=O)/C(C)=C\C=C\[C@H](C)[C@H](O)[C@@H](C)[C@@H](O)[C@@H](C)[C@H](OC(C)=O)[C@@H]1C)C4=O` [Rifabutin, rifabutin], the “minimum inhibitory concentrations (MICs) used for antibiotic plates” value with M. avium turned out to be 0.25 mg/L. In addition, the “Effective Dose” value with NTM was 10 mg/kg/day. Moreover, the “Cavg (rifabutin)” value in data set [1] (Day 7, RFB 20 mg/kg alone) was 1,117 ng/mL; in [1] (Day 7, RFB 60 mg/kg alone) it was 2,558 ng/mL; in data set [1] (Day 7, RFB 60 mg/kg with CLR 200 mg/kg and CFZ 30 mg/kg), 4,541 ng/mL. Further, the Tmax in data set [1] (20 mg/kg) and in data set [1] (60 mg/kg) was 1 h in each case. For the same compound, the AUC(0-t) in data set [1] (setting [6]) was found to be 22.1 µg·h/mL; in [1] (setting [7]), 26.8 µg·h/mL; in data set [1] (setting [8]) it was 60.2 µg·h/mL; in [1] (setting [9]), 60.4 µg·h/mL; in data set [1] (setting [10]), 61.4 µg·h/mL; in data set [1] (setting [11]) it was 109 µg·h/mL. The Cmax in data set [1] (setting [6]) came to 2.31 µg/mL; in data set [1] (setting [7]) it was 3.14 µg/mL; in data set [1] (setting [8]) it was 5.65 µg/mL; in data set [1] (setting [9]) it was 5.3 µg/mL; in data set [1] (setting [10]), 5.76 µg/mL; in data set [1] (setting [11]), 5.72 µg/mL. In addition, the MIC in the data set on MAC [2] (ATCC700898, MAC (ATCC 700898), laboratory strain) was found to be 0.0625 mg/L; in the data set with MAC [2] (Clinical strain #1), 0.125 mg/L; in the data set with MAC [2] (Clinical strain #2), 0.125 mg/L; in the data set on MAC [2] (Clinical strain #3) it was 0.125 mg/L; in the data set with MAC [2] (Clinical strain #4) it was 2 mg/L; with MAC [2] (Clinical strain #5) it was 0.125 mg/L. In the data set on MAC [3], the “Lung Histopathology Findings” value was “Diffuse congestion; also recorded: Infiltrates of lymphocytes are also observed in multiple locations”. In addition, the “Colony Forming Unit Concentration, Four Days” value with M. avium 104 biofilm is on record as 1.41 ± 0.5 × 10^7 CFU/mL. Also, the “Colony Forming Unit Concentration, Seven Days” value in the data set with M. avium 104 biofilm was 1.64 ± 0.3 × 10^7 CFU/mL. The “effect on CFUs / MAC killing, summary” value in [4] was “CFU counts increased”. The “activity as single drugs” value with MAC bacteria is “bacteriostatic activity”.

For `CO[C@H]1/C=C/O[C@@]2(C)Oc3c(C)c(O)c4c(O)c(c(/C=N/N5CCN(C)CC5)c(O)c4c3C2=O)NC(=O)/C(C)=C\C=C\[C@H](C)[C@H](O)[C@@H](C)[C@@H](O)[C@@H](C)[C@H](OC(C)=O)[C@@H]1C` [rifampin], the “ELF:plasma ratio” value in data set [5] is reported as “approximately 0.34”.

These data come from patent publication US11590154B2, “Triple antibiotic fixed-dose combination products, dosing regimen, methods, and kits for treating pulmonary non-tuberculosis mycobacterial infections” (priority 2020, dated 2023).
